In PubChem BioAssay (NCI):
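Each compound was tested at five concentrations against cells in 96-well plates for 48 hours. TGI denotes the concentration required for complete inhibition of growth.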

Legend:
Assay in all cases: inhibition of tumour cell growth, NCI panel, 48 h
HCT-15 colon = test system: HCT-15 colon
OVCAR-5 ovarian = test system: OVCAR-5 ovarian
HCC-2998 colon = test system: HCC-2998 colon
A498 renal = test system: A498 renal
TK-10 renal = test system: TK-10 renal
ACHN renal = test system: ACHN renal
CCRF-CEM leukemia = test system: CCRF-CEM leukemia
BT-549 breast = test system: BT-549 breast
T-47D breast = test system: T-47D breast
HT29 colon = test system: HT29 colon
CAKI-1 renal = test system: CAKI-1 renal
IGROV1 ovarian = test system: IGROV1 ovarian
U251 CNS = test system: U251 CNS
MDA-MB-435 = test system: MDA-MB-435
SR leukemia = test system: SR leukemia
SF-539 CNS = test system: SF-539 CNS
SK-MEL-2 melanoma = test system: SK-MEL-2 melanoma
LOX IMVI melanoma = test system: LOX IMVI melanoma
K-562 leukemia = test system: K-562 leukemia
SF-295 CNS = test system: SF-295 CNS
RPMI-8226 leukemia = test system: RPMI-8226 leukemia
MALME-3M melanoma = test system: MALME-3M melanoma
HL-60(TB) leukemia = test system: HL-60(TB) leukemia
NCI-H226 lung = test system: NCI-H226 lung
OVCAR-8 ovarian = test system: OVCAR-8 ovarian
RXF 393 renal = test system: RXF 393 renal
M14 melanoma = test system: M14 melanoma
SK-MEL-28 melanoma = test system: SK-MEL-28 melanoma
SW-620 colon = test system: SW-620 colon
OVCAR-4 ovarian = test system: OVCAR-4 ovarian
PC-3 prostate = test system: PC-3 prostate
A549 NSCLC = test system: A549 NSCLC
MDA-MB-231 breast = test system: MDA-MB-231 breast
NCI/ADR-RES ovarian = test system: NCI/ADR-RES ovarian
SN12C renal = test system: SN12C renal
HOP-92 NSCLC = test system: HOP-92 NSCLC
HOP-62 NSCLC = test system: HOP-62 NSCLC
COLO 205 colon = test system: COLO 205 colon
NCI-H23 lung = test system: NCI-H23 lung
OVCAR-3 ovarian = test system: OVCAR-3 ovarian
HCT-116 colon = test system: HCT-116 colon
NCI-H460 lung = test system: NCI-H460 lung
SK-OV-3 ovarian = test system: SK-OV-3 ovarian
MDA-N = test system: MDA-N
SF-268 CNS = test system: SF-268 CNS
UACC-62 melanoma = test system: UACC-62 melanoma
UO-31 renal = test system: UO-31 renal
EKVX NSCLC = test system: EKVX NSCLC
786-0 renal = test system: 786-0 renal
DU-145 prostate = test system: DU-145 prostate
SK-MEL-5 melanoma = test system: SK-MEL-5 melanoma
HS 578T breast = test system: HS 578T breast
NCI-H522 lung = test system: NCI-H522 lung
KM12 colon = test system: KM12 colon
UACC-257 melanoma = test system: UACC-257 melanoma
SNB-75 CNS = test system: SNB-75 CNS
SNB-19 CNS = test system: SNB-19 CNS
MOLT-4 leukemia = test system: MOLT-4 leukemia
MCF7 breast = test system: MCF7 breast
LXFL 529 NSCLC = test system: LXFL 529 NSCLC
HOP-18 NSCLC = test system: HOP-18 NSCLC
M19-MEL melanoma = test system: M19-MEL melanoma
DMS 273 small cell lung = test system: DMS 273 small cell lung
DLD-1 colon = test system: DLD-1 colon
XF 498 CNS = test system: XF 498 CNS
KM20L2 colon = test system: KM20L2 colon

## COC(=O)c1ccccc1CC1Cc2cc3c(cc2C1=O)CCC3 (configuration not stated)
HCT-15 colon
  TGI: > 67.3 µM
OVCAR-5 ovarian
  TGI: > 90.8 µM
HCC-2998 colon
  TGI: > 100 µM
A498 renal
  TGI: > 61.1 µM
TK-10 renal
  TGI: 79.7 µM
ACHN renal
  TGI: > 100 µM
CCRF-CEM leukemia
  TGI: 62.7 µM
BT-549 breast
  TGI: 31.8 µM
T-47D breast
  TGI: 69.9 µM
HT29 colon
  TGI: 41.4 µM
CAKI-1 renal
  TGI: > 100 µM
IGROV1 ovarian
  TGI: > 100 µM
U251 CNS
  TGI: 42.3 µM
MDA-MB-435
  TGI: 10.7 µM
SR leukemia
  TGI: > 69 µM
SF-539 CNS
  TGI: 43.1 µM
SK-MEL-2 melanoma
  TGI: 19.7 µM
LOX IMVI melanoma
  TGI: 31.1 µM
K-562 leukemia
  TGI: 44.5 µM
SF-295 CNS
  TGI: 77.4 µM
RPMI-8226 leukemia
  TGI: 54.5 µM
MALME-3M melanoma
  TGI: 69.2 µM
HL-60(TB) leukemia
  TGI: 27.6 µM
NCI-H226 lung
  TGI: 63.7 µM
OVCAR-8 ovarian
  TGI: > 80.8 µM
RXF 393 renal
  TGI: 17.1 µM
M14 melanoma
  TGI: 44.5 µM
SK-MEL-28 melanoma
  TGI: > 100 µM
SW-620 colon
  TGI: > 100 µM
OVCAR-4 ovarian
  TGI: > 93.3 µM
PC-3 prostate
  TGI: > 100 µM
A549 NSCLC
  TGI: 72.8 µM
MDA-MB-231 breast
  TGI: 80.2 µM
NCI/ADR-RES ovarian
  TGI: 21.8 µM
SN12C renal
  TGI: > 67.2 µM
HOP-92 NSCLC
  TGI: 42.4 µM
HOP-62 NSCLC
  TGI: > 94.4 µM
COLO 205 colon
  TGI: 28.4 µM
NCI-H23 lung
  TGI: 75.1 µM
OVCAR-3 ovarian
  TGI: > 76.5 µM
HCT-116 colon
  TGI: 29.9 µM
NCI-H460 lung
  TGI: > 71.4 µM
SK-OV-3 ovarian
  TGI: > 71.8 µM
MDA-N
  TGI: 10.7 µM
SF-268 CNS
  TGI: > 100 µM
UACC-62 melanoma
  TGI: 69.6 µM
UO-31 renal
  TGI: 86.3 µM
EKVX NSCLC
  TGI: > 100 µM
786-0 renal
  TGI: 89.3 µM
DU-145 prostate
  TGI: > 100 µM
SK-MEL-5 melanoma
  TGI: 20.9 µM
HS 578T breast
  TGI: 86.6 µM
NCI-H522 lung
  TGI: 27.1 µM
KM12 colon
  TGI: > 100 µM
UACC-257 melanoma
  TGI: 71.5 µM
SNB-75 CNS
  TGI: 55.7 µM
SNB-19 CNS
  TGI: > 100 µM
MOLT-4 leukemia
  TGI: 33.9 µM
MCF7 breast
  TGI: 65.3 µM

## O=S1(=O)c2ccccc2C(Nc2ccccc2)N1c1ccccc1 (configuration not stated)
HCT-15 colon
  TGI: > 100 µM
OVCAR-5 ovarian
  TGI: > 100 µM
HCC-2998 colon
  TGI: > 100 µM
A498 renal
  TGI: > 100 µM
TK-10 renal
  TGI: > 100 µM
ACHN renal
  TGI: > 100 µM
CCRF-CEM leukemia
  TGI: > 100 µM
BT-549 breast
  TGI: > 100 µM
T-47D breast
  TGI: 80 µM
HT29 colon
  TGI: > 100 µM
CAKI-1 renal
  TGI: > 100 µM
IGROV1 ovarian
  TGI: > 100 µM
U251 CNS
  TGI: > 100 µM
MDA-MB-435
  TGI: > 100 µM
SR leukemia
  TGI: > 100 µM
SF-539 CNS
  TGI: > 100 µM
SK-MEL-2 melanoma
  TGI: > 100 µM
LOX IMVI melanoma
  TGI: > 100 µM
K-562 leukemia
  TGI: > 100 µM
SF-295 CNS
  TGI: > 100 µM
RPMI-8226 leukemia
  TGI: > 100 µM
MALME-3M melanoma
  TGI: > 100 µM
HL-60(TB) leukemia
  TGI: > 100 µM
NCI-H226 lung
  TGI: > 100 µM
OVCAR-8 ovarian
  TGI: > 100 µM
RXF 393 renal
  TGI: > 100 µM
SK-MEL-28 melanoma
  TGI: > 100 µM
SW-620 colon
  TGI: > 100 µM
OVCAR-4 ovarian
  TGI: > 100 µM
PC-3 prostate
  TGI: > 100 µM
A549 NSCLC
  TGI: > 100 µM
MDA-MB-231 breast
  TGI: > 100 µM
NCI/ADR-RES ovarian
  TGI: > 100 µM
SN12C renal
  TGI: > 100 µM
HOP-92 NSCLC
  TGI: > 100 µM
HOP-62 NSCLC
  TGI: > 100 µM
NCI-H23 lung
  TGI: > 100 µM
OVCAR-3 ovarian
  TGI: > 100 µM
HCT-116 colon
  TGI: > 100 µM
NCI-H460 lung
  TGI: > 100 µM
SK-OV-3 ovarian
  TGI: > 100 µM
MDA-N
  TGI: > 100 µM
SF-268 CNS
  TGI: > 100 µM
UACC-62 melanoma
  TGI: > 100 µM
UO-31 renal
  TGI: > 100 µM
EKVX NSCLC
  TGI: > 100 µM
786-0 renal
  TGI: > 100 µM
DU-145 prostate
  TGI: > 100 µM
SK-MEL-5 melanoma
  TGI: > 100 µM
HS 578T breast
  TGI: > 100 µM
NCI-H522 lung
  TGI: 67.9 µM
KM12 colon
  TGI: > 100 µM
UACC-257 melanoma
  TGI: > 100 µM
SNB-75 CNS
  TGI: > 100 µM
MOLT-4 leukemia
  TGI: > 100 µM
MCF7 breast
  TGI: > 100 µM

## C[C@@H](NS(=O)(=O)c1ccc(NC(=O)c2ccccc2)cc1)C(=O)O
HCT-15 colon
  TGI: > 100 µM
OVCAR-5 ovarian
  TGI: > 100 µM
HCC-2998 colon
  TGI: > 100 µM
A498 renal
  TGI: > 100 µM
TK-10 renal
  TGI: > 100 µM
ACHN renal
  TGI: > 100 µM
CCRF-CEM leukemia
  TGI: > 100 µM
LXFL 529 NSCLC
  TGI: > 100 µM
HOP-18 NSCLC
  TGI: > 100 µM
HT29 colon
  TGI: > 100 µM
CAKI-1 renal
  TGI: > 100 µM
IGROV1 ovarian
  TGI: > 100 µM
U251 CNS
  TGI: > 100 µM
SF-539 CNS
  TGI: > 100 µM
SK-MEL-2 melanoma
  TGI: > 100 µM
LOX IMVI melanoma
  TGI: > 100 µM
K-562 leukemia
  TGI: > 100 µM
SF-295 CNS
  TGI: > 100 µM
RPMI-8226 leukemia
  TGI: > 100 µM
M19-MEL melanoma
  TGI: > 100 µM
DMS 273 small cell lung
  TGI: > 100 µM
DLD-1 colon
  TGI: > 100 µM
MALME-3M melanoma
  TGI: > 100 µM
HL-60(TB) leukemia
  TGI: > 100 µM
OVCAR-8 ovarian
  TGI: > 100 µM
RXF 393 renal
  TGI: > 100 µM
M14 melanoma
  TGI: > 100 µM
SK-MEL-28 melanoma
  TGI: > 100 µM
SW-620 colon
  TGI: > 100 µM
OVCAR-4 ovarian
  TGI: > 100 µM
A549 NSCLC
  TGI: > 100 µM
SN12C renal
  TGI: > 100 µM
HOP-92 NSCLC
  TGI: > 100 µM
COLO 205 colon
  TGI: > 100 µM
NCI-H23 lung
  TGI: > 100 µM
OVCAR-3 ovarian
  TGI: > 100 µM
NCI-H460 lung
  TGI: > 100 µM
XF 498 CNS
  TGI: > 100 µM
SK-OV-3 ovarian
  TGI: > 100 µM
SF-268 CNS
  TGI: > 100 µM
UACC-62 melanoma
  TGI: > 100 µM
KM20L2 colon
  TGI: > 100 µM
UO-31 renal
  TGI: > 100 µM
EKVX NSCLC
  TGI: > 100 µM
786-0 renal
  TGI: > 100 µM
SK-MEL-5 melanoma
  TGI: > 100 µM
NCI-H522 lung
  TGI: > 100 µM
KM12 colon
  TGI: > 100 µM
UACC-257 melanoma
  TGI: > 100 µM
SNB-75 CNS
  TGI: > 100 µM
SNB-19 CNS
  TGI: > 100 µM
MOLT-4 leukemia
  TGI: > 100 µM
